Earlier results on one compound are cited in PubChem BioAssay AID1259409 (Chemical Carcinogenesis Research Information System (CCRIS), 2018).

The subject of the series is rodent chemically induced tumor inhibition, incidence and multiplicity. Briefly: CCRIS tumor inhibitor studies. Conditions: Promoter: NONE USED.

With `O=c1oc2c(O)c(O)cc3c(=O)oc4c(O)c(O)cc1c4c23`, the “tumour outcome (control, treated, inhibition, significance)” value runs as follows: (Carcinogen: 2-AMINO-1-METHYL-6-PHENYL-1H-IMIDAZO[4,5-B]PYRID INE, 105650-23-5, Dose [Inhibitor]: 0, 0.1% IN THE DIET FOR 52 WK (STUDY DURATION: 52 WK), Route [Inhibitor]: ORAL, Species: RAT, Strain/Sex: F344/FEMALE, Target Tissue: Type of Lesion: MAMMARY GLAND: ADENOCARCINOMA, Dose [Carcinogen]: 0.02% IN THE DIET FOR 52 WK) 8/20 (40%), 5/19 (26%), 35%, not significant; (Carcinogen: 2-AMINO-1-METHYL-6-PHENYL-1H-IMIDAZO[4,5-B]PYRID INE, 105650-23-5, Dose [Inhibitor]: 0, 0.1% IN THE DIET FOR 52 WK (STUDY DURATION: 52 WK), Route [Inhibitor]: ORAL, Species: RAT, Strain/Sex: F344/FEMALE, Target Tissue: Type of Lesion: MAMMARY GLAND: FIBROADENOMA, Dose [Carcinogen]: 0.02% IN THE DIET FOR 52 WK) 2/20 (10%), 0/19 (0%), 100%, not significant; (Carcinogen: 2-AMINO-1-METHYL-6-PHENYLIMIDAZO[4,5-B]PYRIDINE, 105650-23-5, Dose [Inhibitor]: 0, 0.1% IN DIET FOR 52 WK CONCURRENTLY WITH CARCINOGEN TREATMENT (STUDY DURATION: 52 WK), Route [Inhibitor]: ORAL, Species: RAT, Strain/Sex: F344/FEMALE, Target Tissue: Type of Lesion: LARGE INTESTINE: ADENOMA OR CARCINOMA, Dose [Carcinogen]: 0.02% IN DIET FOR 52 WK) 2/18 (11%), 3/18 (17%), -55%, not significant; (Carcinogen: 2-AMINO-1-METHYL-6-PHENYLIMIDAZO[4,5-B]PYRIDINE, 105650-23-5, Dose [Inhibitor]: 0, 0.1% IN DIET FOR 52 WK CONCURRENTLY WITH CARCINOGEN TREATMENT (STUDY DURATION: 52 WK), Route [Inhibitor]: ORAL, Species: RAT, Strain/Sex: F344/FEMALE, Target Tissue: Type of Lesion: MAMMARY GLAND: ADENOCARCINOMA, Dose [Carcinogen]: 0.02% IN DIET FOR 52 WK) 8/20 (40%), 5/19 (26%), 35%, not significant; (Carcinogen: 3-METHYLCHOLANTHRENE, 56-49-5, Dose [Inhibitor]: 1 UMOL 2/WK FOR 16 WK APPLIED 1 HR PRIOR TO EACH CARCINOGEN TREATMENT (STUDY DURATION: 16 WK), Route [Inhibitor]: DERMAL, Species: MOUSE, Strain/Sex: BALB/FEMALE, Target Tissue: Type of Lesion: SKIN: TUMOR, Dose [Carcinogen]: 1.5 UMOL 2/WK FOR 16 WK) 100%, 50%, 50%, not calculated; (Carcinogen: 3-METHYLCHOLANTHRENE, 56-49-5, Dose [Inhibitor]: 1.0 UMOL APPLIED 1 HR PRIOR TO EACH CARCINOGEN DOSE 2/WK FOR 16 WK (STUDY DURATION: 16 WK), Route [Inhibitor]: DERMAL, Species: MOUSE, Strain/Sex: BALB/FEMALE, Target Tissue: Type of Lesion: SKIN: TUMOR, Dose [Carcinogen]: 1.5 UMOL 2/WK FOR 16 WK) 100%, 50%, 50%, not calculated. The “tumour outcome (control, treated, inhibition, significance)” value was 100%, 40%, 60%, not calculated (Carcinogen: 3-METHYLCHOLANTHRENE, 56-49-5, Dose [Inhibitor]: 2 UMOL 2/WK FOR 16 WK APPLIED 1 HR PRIOR TO EACH CARCINOGEN TREATMENT (STUDY DURATION: 16 WK), Route [Inhibitor]: DERMAL, Species: MOUSE, Strain/Sex: BALB/FEMALE, Target Tissue: Type of Lesion: SKIN: TUMOR, Dose [Carcinogen]: 1.5 UMOL 2/WK FOR 16 WK); 100%, 40%, 60%, not calculated (Carcinogen: 3-METHYLCHOLANTHRENE, 56-49-5, Dose [Inhibitor]: 2 UMOL APPLIED 1 HR PRIOR TO EACH CARCINOGEN DOSE 2/WK FOR 16 WK (STUDY DURATION : 16 WK), Route [Inhibitor]: DERMAL, Species: MOUSE, Strain/Sex: BALB/FEMALE, Target Tissue: Type of Lesion: SKIN: TUMOR, Dose [Carcinogen]: 1.5 UMOL 2/WK FOR 16 WK); 100%, 96%, 4%, not calculated (Carcinogen: 4-(METHYLNITROSAMINO)-1-(3-PYRIDYL)-1-BUTANONE, 64091-91-4, Dose [Inhibitor]: 0, 4 G/KG DIET 2 WK PRIOR TO CARCINOGEN TREATMENT AND CONTINUING FOR STUDY DURATION (STUDY DURATION: 26 MO), Route [Inhibitor]: ORAL, Species: MOUSE, Strain/Sex: STRAIN-A/FEMALE, Target Tissue: Type of Lesion: LUNG: ADENOMA, Dose [Carcinogen]: TOTAL DOSE 9.2 MG/MOUSE ADMINISTERED IN DRINKING WATER); 28/28 (100%), 24/25 (96%), 4%, not significant (Carcinogen: 4-(METHYLNITROSAMINO)-1-(PYRIDYL)-1-BUTANONE, 64091-91-4, Dose [Inhibitor]: 0, 4 G/KG DIET (37 UMOL/D) BEGINNING 2 WK PRIOR TO CARCINOGEN DOSE AND CONTINUING FOR DURATION OF STUDY (STUDY DURATION:, Route [Inhibitor]: ORAL, Species: MOUSE, Strain/Sex: STRAIN-A/FEMALE, Target Tissue: Type of Lesion: LUNG: ADENOMA, Dose [Carcinogen]: 9.2, 9.4 MG/MOUSE IN DRINKING WATER DURING 7 WK); 100%, 100%, 0%, not significant (Carcinogen: 4-(METHYLNITROSOAMINO-1-(PYRIDYL)-1-BUTANONE, 64091-91-4, Dose [Inhibitor]: 0, 4 G/KG DIET BEGINNING 1 D POST CARCINOGEN DOSE AND CONTINUING FOR 16 WK (STUDY DURATION: 16 WK), Route [Inhibitor]: ORAL, Species: MOUSE, Strain/Sex: STRAIN-A/FEMALE, Target Tissue: Type of Lesion: LUNG: ADENOMA, Dose [Carcinogen]: 2 MG IN 0.2 ML OF O.9% NACL ONCE).
